In data set [1] the test system is Human prostate cancer cell line (PC-3). The data set is described as follows: MTT cell proliferation assay, cytotoxicity and GI50, PC-3. The settings on record: read-out: Cytotoxic activity (GI50 Values) PC-3. A general note: Tetrazolium assays rely on reduction of a dye to a coloured formazan, in cell work by metabolically active cells.
Procedure: Cell Culture and Cytotoxicity:
(§1) Human prostate cancer cell line (PC-3) and human colon cancer cell line (HT-29) were obtained from the German Collection of Microorganisms. All cell lines were cultivated under conditions recommended by their respective depositors. […] For PC-3 cell lines 500 cells per well and for HT-29 cell lines 1500-2000 cells per well were seeded overnight into 96-well cell culture plates (TPP, Trasadingen, Switzerland) and exposed to serial dilutions of each inhibitor for 3 days. Formazan salt formation was measured at 490 nm using an enzyme-linked immunosorbent assay (ELISA) reader (DYNEX technologies MRX TC II). From each compound four independent replicates were prepared.
In data set [2] the test system is human colon cancer cell line (HT-29). Put plainly: MTT cell proliferation assay, cytotoxicity and GI50, HT-29. The settings on record: read-out: Cytotoxic activity (GI50 Values) HT-29.
Procedure: Cell Culture and Cytotoxicity:
as §1

The structures appear in SMILES notation. Like-named read-outs stand apart in the source and are kept apart here.

For orientation: GI50 means the concentration giving 50% growth inhibition. `CC(=O)O[C@H]1C(=O)[C@@]2(C)[C@H]([C@H](OC(=O)c3ccccc3)[C@]3(O)C[C@H](OC(=O)[C@H](O)[C@@H](NC(=O)c4ccccc4)c4ccccc4)C(C)=C1C3(C)C)[C@]1(OC(C)=O)CO[C@@H]1C[C@@H]2O` [taxol, reference compound]: the GI50 was determined as 7.2 nM in data set [1] (Homo sapiens, PC-3, 72 h) and 5.3 nM in data set [2] (Homo sapiens, HT-29, 72 h).

With `CCCCNC(=O)CN(C(=O)[C@@H](NC(=O)[C@H]1CCCCN1C)[C@@H](C)CC)[C@H](C[C@@H](OC(C)=O)c1nc(C(=O)N[C@@H](Cc2ccccc2)C[C@H](C)C(=O)O)cs1)C(C)C` [tubugi A], the GI50 in data set [1] (Homo sapiens, PC-3, 72 h) was determined as 0.23 nM; in data set [2] (Homo sapiens, HT-29, 72 h) it was 0.14 nM.

Regarding `CC[C@H](C)[C@H](NC(=O)[C@H]1CCCCN1C)C(=O)N(CC(=O)NC(C)C)[C@H](C[C@@H](OC(C)=O)c1nc(C(=O)N[C@@H](Cc2ccccc2)C[C@H](C)C(=O)O)cs1)C(C)C` [tubugi B], the GI50 is 0.29 nM in data set [1] (Homo sapiens, PC-3, 72 h) and 0.34 nM in data set [2] (Homo sapiens, HT-29, 72 h).

Consider `CCCCNC(=O)C(C)N(C(=O)[C@@H](NC(=O)[C@H]1CCCCN1C)[C@@H](C)CC)[C@H](C[C@@H](OC(C)=O)c1nc(C(=O)N[C@@H](Cc2ccccc2)C[C@H](C)C(=O)O)cs1)C(C)C` (stereo partly shown) [tubugi D], for which the GI50 amounted to 0.22 nM in data set [1] (Homo sapiens, PC-3, 72 h) and 0.56 nM in data set [2] (Homo sapiens, HT-29, 72 h).

Consider `CC[C@H](C)[C@H](NC(=O)[C@H]1CCCCN1C)C(=O)N(COC(=O)CC(C)C)[C@H](C[C@@H](OC(C)=O)c1nc(C(=O)N[C@@H](Cc2ccc(O)cc2)C[C@H](C)C(=O)O)cs1)C(C)C` [tubulysin A, reference compound], for which the GI50 in data set [1] (PC-3 cells, exposed 3 days, MTT, four independent replicates) is 0.21 nM; in data set [2] (HT-29 cells, exposed 3 days, MTT, four independent replicates), 0.32 nM.

The record behind these values is patent US9371358B2 (priority 2010, dated 2016).
